The target of one assay is T1, purified ovine COX-1 (Ovis aries, UniProt P05979).
T1 construct: purchased Cayman
T1 sequence (P05979 25-600): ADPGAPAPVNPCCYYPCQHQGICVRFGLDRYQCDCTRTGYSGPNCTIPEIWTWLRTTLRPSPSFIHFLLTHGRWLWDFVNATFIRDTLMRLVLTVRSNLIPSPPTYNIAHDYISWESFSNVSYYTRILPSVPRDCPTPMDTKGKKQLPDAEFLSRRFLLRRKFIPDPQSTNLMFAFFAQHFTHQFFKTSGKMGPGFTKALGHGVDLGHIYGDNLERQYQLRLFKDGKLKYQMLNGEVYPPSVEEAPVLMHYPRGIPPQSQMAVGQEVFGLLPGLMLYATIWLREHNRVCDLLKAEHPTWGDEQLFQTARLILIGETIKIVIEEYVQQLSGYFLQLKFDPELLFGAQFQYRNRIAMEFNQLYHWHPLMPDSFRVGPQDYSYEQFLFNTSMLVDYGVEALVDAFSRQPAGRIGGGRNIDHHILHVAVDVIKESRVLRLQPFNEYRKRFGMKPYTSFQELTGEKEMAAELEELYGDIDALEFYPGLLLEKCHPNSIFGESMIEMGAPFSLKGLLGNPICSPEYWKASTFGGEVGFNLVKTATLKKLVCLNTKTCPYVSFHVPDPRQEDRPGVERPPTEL
The experiment in a line: COX-1 colorimetric assay. The format is biochemical. On the procedure: COX-1 and COX-2 activities were measured using purified ovine COX-1 and COX-2 with colorimetric assay kits obtained from Cayman as previously reported. The activities of COX-1 and COX-2 were measured after the addition of arachidonic acid and incubation at 25°C for 5 min by absorbance at 590 nm as specified by the manufacturer.
(§1) The IC50 values were determined as described previously. All experiments were repeated a minimum of three times to determine the reproducibility of the results. All error bars represent standard error of the mean (SEM). Statistical analysis of differences between samples was performed using the Student’s t-test. A P value of < 0.05 was considered statistically significant.

In the next assay the target is T2, PDE10 (Homo sapiens, UniProt Q9Y233).
T2 construct: purchased BPS Biosciences
T2 sequence (Q9Y233 267-1055): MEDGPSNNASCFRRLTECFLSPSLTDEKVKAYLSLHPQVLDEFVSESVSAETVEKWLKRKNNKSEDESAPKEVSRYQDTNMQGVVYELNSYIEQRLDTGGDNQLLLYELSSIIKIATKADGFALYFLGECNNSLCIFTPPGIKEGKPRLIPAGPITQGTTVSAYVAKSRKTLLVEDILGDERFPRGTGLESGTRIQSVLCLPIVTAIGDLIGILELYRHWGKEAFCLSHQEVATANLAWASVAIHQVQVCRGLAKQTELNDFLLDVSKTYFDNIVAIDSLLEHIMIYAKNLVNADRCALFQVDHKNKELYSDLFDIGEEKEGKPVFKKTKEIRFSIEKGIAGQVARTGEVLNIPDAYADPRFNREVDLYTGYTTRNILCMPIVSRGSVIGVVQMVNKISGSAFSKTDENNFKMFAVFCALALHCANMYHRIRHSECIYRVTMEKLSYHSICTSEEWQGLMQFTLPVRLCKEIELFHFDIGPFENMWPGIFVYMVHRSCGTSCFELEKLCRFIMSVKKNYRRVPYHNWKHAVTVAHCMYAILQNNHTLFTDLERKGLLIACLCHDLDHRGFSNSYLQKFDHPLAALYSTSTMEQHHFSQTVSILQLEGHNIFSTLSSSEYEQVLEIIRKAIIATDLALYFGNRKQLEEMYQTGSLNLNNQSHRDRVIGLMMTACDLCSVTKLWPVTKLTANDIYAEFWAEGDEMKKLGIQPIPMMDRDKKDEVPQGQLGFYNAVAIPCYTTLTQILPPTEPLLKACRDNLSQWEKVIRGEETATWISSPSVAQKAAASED
Nature of the assay: IMAP fluorescence polarization PDE assay, recombinant PDE10. It counts as biochemical. As to conditions: recombinant enzyme. As for the experimental part: Recombinant PDE isozymes were purchased from BPS Biosciences. The PDE10 antibody was purchased from GeneTex, while the PDE5 antibody was purchased from Cell Signaling Technologies. Non-targeting control siRNA and PDE10 specific siRNAs were purchased from Qiagen. RNAiMAX transfection reagent was purchased from Invitrogen. DMSO was used as vehicle for all compounds unless otherwise noted. All other reagents were purchased from Sigma.
PDE activity was measured using the IMAP fluorescence polarization (FP) PDE assay (Molecular Devices) in which binding of hydrolyzed fluorescent cyclic nucleotide substrate to the IMAP reagent increases FP as described previously.
as §1
Background: In fluorescence polarisation assays a small probe gives low polarisation when free and higher when bound to something large.

Another assay deals with HT29 colon tumor cells. The experiment in a line: Growth assay (Cell Titer Glo), HT29. It counts as cell-based. The following applies: Homo sapiens, HT-29; 72 hours of treatment; read-out: HT29 growth IC50. On the procedure: Human colon tumor cell lines, HCT116, HT29, SW480 and Caco-2 were obtained from the American Type Culture Collection (ATCC) and grown under standard cell culture conditions in RPMI 1640 medium containing 5% serum at 37°C in a humidified atmosphere with 5% CO2. The human colonocyte line, NCM460, that is derived from normal human colon mucosa was obtained from INCELL and grown in INCELL’s enriched M3:10 medium with 10% serum as recommended by supplier. All cell lines were expanded upon delivery, and numerous aliquots of low passage cells were preserved in liquid N2. Cells were passaged no longer than 2 months. Tumor cell lines obtained from ATCC were characterized by STR profiling as performed by ATCC. The NCM460 line was characterized by INCELL as described previously (e.g. tumorigenicity testing). No additional re-authentication of the cell lines was performed except for experimental reasons (e.g. confirmation of cell doubling time, morphology, sensitivity to SS, PDE5/10 expression levels, etc).
Cells were plated in 96-well microtiter plates at a density of 5,000 cells per well. For drug treatment, cells were treated with compound or vehicle, and incubated at 37°C for 72 hours. All growth assays were performed in 5% serum unless otherwise noted. Deionized water was used as vehicle control for papaverine. For siRNA assays, cells were transfected with siRNA under the same condition described above. The effect of treatment on cell growth was measured using the Cell Titer Glo Assay as specified by the manufacturer (Promega).
as §1
On the technique in general: Cellular ATP, detected with luciferase, serves as a proxy for viable cell number.

For the next assay, the system named is HCT116 colon tumor cells. The experiment in a line: Cell proliferation assay (EdU incorporation, flow cytometry). The following applies: 24 hours treatment with 0.1 μmol/L. The format is cell-based, human. As for the experimental part: The antiproliferative activity of ADT-094 was determined by measuring EdU (5-ethynyl-2′-deoxyuridine) incorporation during DNA synthesis. Cells were plated at a density of 1.5 × 10^6 cells per 10 cm tissue culture dish and incubated overnight at 37°C. After growing the cells in serum-free media overnight, the cells were treated with ADT-094 or vehicle in medium supplemented with 10% serum for 6 hours. A final concentration of 10 μmol/L EdU was added to each dish and incubated for an additional 18 hours. Cells were harvested and analyzed using the Click-iT EdU Alexa Fluor 488 Proliferation Assay (Invitrogen) according to the manufacturer’s specifications. The percentage of proliferating cells was quantified using a BD FACSCalibur flow cytometer.
On the technique in general: In flow cytometry, cells or beads pass a laser one at a time.

The subject of assay [1] is PKG/PKA activity (VASP Ser239/Ser157) in Caco-2 colon tumor cells. The experiment in a line: Western blotting of VASP phosphorylation, Caco-2. It counts as cell-based, human. On the procedure: Western blotting was performed as described previously. Cells were treated with ADT-094 or vehicle for 8 hours before cell lysates were collected.
The test system of assay [2] is β-catenin/TCF transcriptional activity in HCT116 cells. The format is cell-based. As to conditions: HCT116, 24 hours of treatment. On the procedure: Cells were seeded at a density of 5 × 10^4 cells per well in 24-well tissue culture plates and incubated overnight at 37°C. Cells were transiently transfected with 0.1 μg TOP-FLASH constructs (Millipore) and 0.1 μg β-galactosidase-expressing vector (Promega). After 24 hours of transfection, cells were treated with ADT-094 or vehicle for 24 hours. At the end of treatment, cells were lysed and both luciferase and β-galactosidase activities were measured using kits from Promega. All luciferase activity was normalized to β-galactosidase activity.

As a reminder, the IC50 is the point on the concentration scale where inhibition reaches its midpoint.

Consider `COc1ccc2c(c1)C(CC(=O)NCc1ccco1)=C(C)/C2=C/c1cc(OC)c(OC)c(OC)c1` [ADT-094, (Z)-N-(furan-2-ylmethyl)-2-(5-methoxy-2-methyl-1-(3,4,5-trimethoxybenzylidene)-1H-inden-3-yl) acetamide], for which the values for the IC50 at purified ovine COX-1 (Figure 3A), on PDE10 and with HT29 colon tumor cells were 81000 nM, 500 nM and 100 nM, respectively. Besides, the COX-1 inhibitory activity entry at purified ovine COX-1 (in words) is on record as “essentially lacks”. Besides, the “proliferation (EdU incorporation)” value in the assay with HCT116 colon tumor cells is “inhibited the proliferation”. The “VASP phosphorylation at Ser239” value in assay [1] (Caco-2) was “Dose-dependent increases”. The “PKA activity (VASP phosphorylation at Ser157)” value in assay [1] (Caco-2, at concentrations that cause PKG activation) is recorded as “did not affect PKA activity”. Besides, the β-catenin/TCF transcriptional activity entry in assay [2] is recorded as “significantly inhibited”.

The values above are taken from PMC4694998, “Suppression of β-catenin/TCF transcriptional activity and colon tumor cell growth by dual inhibition of PDE5 and 10” (Oncotarget, 2015).
